This note sets out measurements from ChEMBL document CHEMBL1155981, “Molecular modeling studies to predict the possible binding modes of endomorphin analogs in mu opioid receptor” (Bioorg Med Chem Lett, 2009).

In this assay the target is Mu-type opioid receptor (Homo sapiens, UniProt P35372). Put plainly: Binding affinity to human mu opioid receptor.

As usually defined, the Ki is a dissociation constant, usually derived from enzyme kinetics or from competition with a known ligand. Read a high Ki as a looser hold on the target.

Peptide text beside a SMILES is read from it. * marks the point of attachment. NHBn = c1ccc(CN*)cc1

Mu-type opioid receptor, sequence (P35372 whole entry): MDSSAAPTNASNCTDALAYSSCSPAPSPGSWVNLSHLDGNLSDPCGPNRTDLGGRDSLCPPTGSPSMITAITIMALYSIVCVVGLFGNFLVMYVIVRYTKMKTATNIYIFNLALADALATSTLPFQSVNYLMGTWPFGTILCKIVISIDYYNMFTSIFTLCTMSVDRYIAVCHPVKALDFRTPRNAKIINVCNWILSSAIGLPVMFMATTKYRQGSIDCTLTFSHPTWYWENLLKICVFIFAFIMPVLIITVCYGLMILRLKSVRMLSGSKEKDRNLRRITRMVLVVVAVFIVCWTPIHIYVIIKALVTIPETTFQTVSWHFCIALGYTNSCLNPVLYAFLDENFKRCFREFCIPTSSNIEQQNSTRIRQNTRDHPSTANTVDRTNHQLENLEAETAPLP

The molecule `CC(C)[C@@H](NC(=O)[C@H](Cc1c[nH]c2ccccc12)NC(=O)[C@@H]1CCCN1C(=O)[C@@H](N)Cc1ccc(O)cc1)C(=O)NCc1ccccc1` displayed a Ki of 2.32 nM. That is a single-digit nanomolar value.

Take `CC(C)[C@@H](NC(=O)[C@H](Cc1ccccc1)NC(=O)[C@@H]1CCCN1C(=O)[C@@H](N)Cc1ccc(O)cc1)C(=O)NCc1ccccc1`: the inhibition constant Ki stood at 4.97 nM.

`C[C@@H](NC(=O)[C@H](Cc1c[nH]c2ccccc12)NC(=O)[C@@H]1CCCN1C(=O)[C@@H](N)Cc1ccc(O)cc1)C(=O)NCc1ccccc1` displayed a Ki of 4.56 nM.

`C[C@@H](NC(=O)[C@H](Cc1ccccc1)NC(=O)[C@@H]1CCCN1C(=O)[C@@H](N)Cc1ccc(O)cc1)C(=O)NCc1ccccc1` yielded a Ki of 8.67 nM.

The molecule `C[C@H](NC(=O)[C@H](Cc1ccccc1)NC(=O)[C@@H]1CCCN1C(=O)[C@@H](N)Cc1ccc(O)cc1)C(=O)NCc1ccccc1` had a Ki of 122 nM.

For the molecule `N[C@@H](Cc1ccc(O)cc1)C(=O)N1CCC[C@H]1C(=O)N[C@@H](Cc1c[nH]c2ccccc12)C(=O)NCC(=O)NCc1ccccc1` (H-YPWG-NHBn), the inhibition constant (Ki) stood at 56.2 nM.
